Data as given in the supplement of paper PMC10307832.

Columns and labels:
Test in all cases: relative viability (nuclei count vs DMSO), 5 days (fraction); higher = more cells survive
[1] = compound: C1=CC2=C(C=C(C(=C2N=C1)O)N=NC3=CC4=C(C=C3)C=C(C=C4)S(=O)(=O)O)S(=O)(=O)O + C[C@@H](Oc1cc(-c2cnn(C3CCNCC3)c2)cnc1N)c1c(Cl)ccc(F)c1Cl [Crizotinib] (partner 1 µM)
In short: (§1)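 For relative viability, nuclei counts in treated wells were divided by those in vehicle wells. Lung cancer cell lines had been pin-tool dosed in 1536-well plates the day after seeding and cultured for 5 days, then fixed and stained in one step (final 0.05% Triton X-100, 1% formaldehyde, 1 ug/ml Hoechst) and imaged at 4×. Doses were one drug alone or a fixed anchor-drug dose plus five library-drug doses (not always all listed) in √10 steps, and values are duplicate-plate medians.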

AT-7519 + Vorinostat = compound: O=C(NC1CCNCC1)c1n[nH]cc1NC(=O)c1c(Cl)cccc1Cl [AT-7519] + O=C(CCCCCCC(=O)Nc1ccccc1)NO [Vorinostat] (partner 1 µM)
In short: as §1

[2] = compound: C1=CC2=C(C=C(C(=C2N=C1)O)N=NC3=CC4=C(C=C3)C=C(C=C4)S(=O)(=O)O)S(=O)(=O)O + Nc1ncn([C@H]2C[C@H](O)[C@@H](CO)O2)c(=O)n1 [Decitabine] (partner 2 µM)
In short: as §1

AT-7519 + Tozasertib = compound: O=C(NC1CCNCC1)c1n[nH]cc1NC(=O)c1c(Cl)cccc1Cl [AT-7519] + Cc1cc(Nc2cc(N3CCN(C)CC3)nc(Sc3ccc(NC(=O)C4CC4)cc3)n2)n[nH]1 [Tozasertib] (partner 0.1 µM)
In short: as §1

Cell Line | relative viability ([1]; first compound 0.08 µM) | relative viability ([1]; first compound 0.253 µM) | relative viability ([1]; first compound 0.8 µM) | relative viability ([1]; first compound 2.53 µM) | relative viability ([1]; first compound 8 µM) | relative viability (AT-7519 + Vorinostat; first compound 0.01 µM) | relative viability (AT-7519 + Vorinostat; first compound 0.03162 µM) | relative viability (AT-7519 + Vorinostat; first compound 0.3162 µM) | relative viability (AT-7519 + Vorinostat; first compound 1 µM) | relative viability ([2]; first compound 0.08 µM) | relative viability ([2]; first compound 0.253 µM) | relative viability ([2]; first compound 0.8 µM) | relative viability ([2]; first compound 2.53 µM) | relative viability ([2]; first compound 8 µM) | relative viability (AT-7519 + Tozasertib; first compound 0.01 µM) | relative viability (AT-7519 + Tozasertib; first compound 0.03162 µM) | relative viability (AT-7519 + Tozasertib; first compound 0.3162 µM) | relative viability (AT-7519 + Tozasertib; first compound 1 µM)
HCC-44 | 0.935 | 0.767 | 0.807 | 0.819 | 0.859 | 1.16 | 1.08 | 1.11 | 1.08 | 0.935 | 0.932 | 0.93 | 1.04 | 0.949 | 1.14 | 0.809 | 0.303 | 0.231
HCC-827 | 0.97 | 0.886 | 0.971 | 0.911 | 0.998 | 0.928 | 0.827 | 0.958 | 1.02 | 0.402 | 0.311 | 0.297 | 0.342 | 0.306 | 0.399 | 0.403 | 0.447 | 0.645
NCI-H1623 | – | – | – | – | – | – | – | – | – | – | – | – | – | – | 0.378 | 0.401 | 0.518 | 0.393
NCI-H2347 | 0.691 | 0.674 | 0.651 | 0.768 | 0.636 | 0.463 | 0.527 | 0.637 | 0.379 | 0.586 | 0.61 | 0.602 | 0.629 | 0.614 | 0.635 | 0.512 | 0.425 | 0.442
PC-14 | 0.944 | 0.833 | 0.907 | 0.892 | 0.941 | 0.838 | 0.668 | 0.621 | 0.388 | 0.184 | 0.229 | 0.217 | 0.266 | 0.217 | 0.591 | 0.677 | 0.526 | 0.392
NCI-H1651 | 0.968 | 0.834 | 0.837 | 0.874 | 0.729 | 0.606 | 0.505 | 0.56 | 0.643 | 0.79 | 0.548 | 0.659 | 0.658 | 0.535 | 0.7 | 0.679 | 0.646 | 0.556
HARA | 1.1 | 1.01 | 1.03 | 1.02 | 1.04 | 0.479 | 0.527 | 0.588 | 0.223 | 0.69 | 0.584 | 0.52 | 0.519 | 0.563 | 0.129 | 0.0981 | 0.147 | 0.155
NCI-H1650 | 1.05 | 0.894 | 0.962 | 1.15 | 1.01 | 0.534 | 0.681 | 0.489 | 0.23 | 0.438 | 0.37 | 0.511 | 0.447 | 0.318 | 0.532 | 0.436 | 0.392 | 0.148
NCI-H1395 | – | – | – | – | – | 0.82 | 0.655 | 0.57 | 0.565 | 0.724 | 0.734 | 0.737 | 0.714 | 0.691 | 0.788 | 0.782 | 0.716 | 0.668
LU99A | 0.626 | 0.605 | 0.521 | 0.57 | 0.574 | 0.481 | 0.462 | 0.469 | 0.448 | 0.91 | 0.818 | 0.767 | 0.838 | 0.705 | 0.26 | 0.276 | 0.297 | 0.218
